Tests used:
Format in all cases: in vivo
Aegilops tauschii [1] = assay: Soil sealing treatment pot experiment for controlling Aegilops tauschii (Example 1); conditions: for control effect on Aegilops tauschii: single active ingredient, summary of Table 2
Text: (§1) Referring to an article of Colby, S. R. i.e., Calculation of the synergistic and antagonistic response of herbicide combinations. Weeds 1967, 15, pp. 20-22 (which is incorporated herein in its entirety by reference), the theoretical value E0 of a given mixture of three active ingredients may be predicted according to the following equation, then evaluating whether there is synergy.
(§2) [formula] • wherein: • E0 is the theoretical fresh weight survival rate for the mixture of pyroxasulfone, chlorotoluron and […]; • X is the measured fresh weight survival rate for pyroxasulfone used alone in the same dosage as that in the mixture; • Y is the measured fresh weight survival rate for chlorotoluron used alone in the same dosage as that in the mixture; • Z is the measured fresh weight survival rate for mesosulfuron-methyl used alone in the same dosage as that in the mixture. • E is the measured fresh weight survival rate for the mixture of pyroxasulfone, chlorotoluron and mesosulfuron-methyl. • E0-E value is calculated to evaluate the combined effect of pyroxasulfone, chlorotoluron and mesosulfuron-methyl on the selected weeds.
(§3) In this example, the herbicidal activity of a mixture of pyroxasulfone, chlorotoluron and mesosulfuron-methyl for soil sealing treatment to control Aegilops tauschii is investigated by a pot experiment method under the conditions of a glass greenhouse. This example is carried out in accordance with “NY/T 1155.4-2006 Guidelines for Indoor Bioassay Tests of Pesticides, Herbicides Part 4: Activity Determination Tests, Stem and Leaf Spray Method”.
(§4) • Pyroxasulfone: pyroxasulfone (850 g/Kg, WG) from Adama Agan LTD. • Chlorotoluron: chlorotoluron (90 wt %, WG) from Adama Agan LTD. • Mesosulfuron-methyl: Sigma (30 g/L, OD) from Bayer AG. • Test location: Greenhouse of Institute of Plant Protection, Shandong Academy of Agricultural Sciences • Cultivation of test materials: The test soil is formed by mixing the 20 cm layer loam on the ground surface and the culture medium in a ratio of 3:1 as cultivation soil.
(§5) The test weeds are cultivated in a glass greenhouse at a temperature of 15-30° C. and natural light. A certain amount of Aegilops tauschil seeds are sown in a plastic pot with a diameter of 9 cm, covering with 1-2 mm soil, and putting them in an enamel dish filled with water. The bottom infiltration method is used to water them, waiting for the water to seep to the soil surface, and then transferring to a glass greenhouse for cultivation. The agents are applied on the second day after sowing Aegilops tauschii seeds.
(§6) For each active ingredient, the multiple dilution method is used to obtain the other five lower dosages from the highest dosage. A certain amount of agent is measured by pipette or balance, adding it directly to the water, and then diluting it to the required dosage by the multiple dilution method.
(§7) Spraying treatment: ASS-4 automatic control spraying system with a fan-shaped nozzle is used indoors to spray agent, the running speed is adjusted based on nozzle pressure, flow rate, etc. to spray 50 mL of chemical solution on the actual spray area of 1.1 m^2 (equivalent to 30 liters per mu), arranging the plastic pots to be processed on the spraying table evenly, and spraying evenly. The spraying pressure is 0.35 MPa, and the flow rate of the fan-shaped nozzle is 800 mL/min, spraying in order from low dosage to high dosage. Each treatment is repeated 3 times. After spraying, let it dry for one day, placing it in a glass greenhouse, and watering it regularly to keep moist.
Application time and frequency: the experiment is conducted on the second day after sowing Aegilops tauschii seeds, and the soil is evenly sprayed. The application time is Mar. 10, 2020, with one application.
Weed investigation method and time: after applying the agent, the symptoms of weed damage (such as growth inhibition, chlorosis, deformity, etc.) are recorded in detail. […]

Lolium multiflorum Lamk = assay: Soil sealing treatment pot experiment for controlling Lolium multiflorum Lamk (Example 2); conditions: 35 days
Aegilops tauschii [2] = assay: Soil sealing treatment pot experiment for controlling Aegilops tauschii, more mixing ratios (Example 3)
Text: as §1, §2, §3, §4, §5, §6, §7
Weed investigation method and time: after applying the agent, the symptoms of weed damage (such as growth inhibition, chlorosis, deformity, etc.) are recorded in detail. After 35 days, the fresh weight of aerial part of the weeds in each treatment is weighed, and the measured fresh weight inhibition rate and the measured fresh weight survival rate for each treatment are calculated according to the following equations: […]

COC(=O)c1ccc(CNS(C)(=O)=O)cc1S(=O)(=O)NC(=O)Nc1nc(OC)cc(OC)n1 [mesosulfuron-methyl, 2-[3-(4,6-dimethoxypyrimidin-2-yl)ureasulfonyl]-4-methylsulfonamide methyl benzoate]
Measured fresh weight survival rate (%) - E (Aegilops tauschii [1]; 1.25 gai/ha, 35 days): 96.1% | Measured fresh weight survival rate (%) - E (Aegilops tauschii [1]; 2.5 gai/ha, 35 days): 100% | Measured fresh weight survival rate (%) - E (Aegilops tauschii [1]; 5 gai/ha, 35 days): 94.81% | Measured fresh weight survival rate (%) - E (Aegilops tauschii [1]; 10 gai/ha, 35 days): 83.12% | Measured fresh weight survival rate (%) - E (Aegilops tauschii [1]; 20 gai/ha, 35 days): 71.43% | Measured fresh weight survival rate (%) - E (Aegilops tauschii [1]; 40 gai/ha, 35 days): 88.31% | inhibition at 1.25 g/ha (Aegilops tauschii [1]; Aegilops tauschii, soil, 840 h, 1.25 gai/ha, 35 days, read-out: Measured fresh weight inhibition rate (%)): 3.9% | inhibition at 2.5 g/ha (Aegilops tauschii [1]; Aegilops tauschii, soil, 840 h, 2.5 gai/ha, 35 days, read-out: Measured fresh weight inhibition rate (%)): 0% | inhibition at 5 g/ha (Aegilops tauschii [1]; Aegilops tauschii, soil, 840 h, 5 gai/ha, 35 days, read-out: Measured fresh weight inhibition rate (%)): 5.19% | inhibition at 10 g/ha (Aegilops tauschii [1]; Aegilops tauschii, soil, 840 h, 10 gai/ha, 35 days, read-out: Measured fresh weight inhibition rate (%)): 16.9% | inhibition at 20 g/ha (Aegilops tauschii [1]; Aegilops tauschii, soil, 840 h, 20 gai/ha, 35 days, read-out: Measured fresh weight inhibition rate (%)): 28.6% | inhibition at 40 g/ha (Aegilops tauschii [1]; Aegilops tauschii, soil, 840 h, 40 gai/ha, 35 days, read-out: Measured fresh weight inhibition rate (%)): 11.7% | control effect on Aegilops tauschii (Aegilops tauschii [1]): substantively ineffective | Measured fresh weight survival rate (%) - E (Lolium multiflorum Lamk; 1.25 gai/ha): 96.7% | Measured fresh weight survival rate (%) - E (Lolium multiflorum Lamk; 2.5 gai/ha): 94.51% | Measured fresh weight survival rate (%) - E (Lolium multiflorum Lamk; 5 gai/ha): 83.52% | Measured fresh weight survival rate (%) - E (Lolium multiflorum Lamk; 10 gai/ha): 60.44% | Measured fresh weight survival rate (%) - E (Lolium multiflorum Lamk; 20 gai/ha): 39.56% | Measured fresh weight survival rate (%) - E (Lolium multiflorum Lamk; 40 gai/ha): 6.59% | inhibition at 1.25 g/ha (Lolium multiflorum Lamk; Lolium multiflorum, soil, 840 h, 1.25 gai/ha, read-out: Measured fresh weight inhibition rate (%)): 3.3% | inhibition at 2.5 g/ha (Lolium multiflorum Lamk; Lolium multiflorum, soil, 840 h, 2.5 gai/ha, read-out: Measured fresh weight inhibition rate (%)): 5.49% | inhibition at 5 g/ha (Lolium multiflorum Lamk; Lolium multiflorum, soil, 840 h, 5 gai/ha, read-out: Measured fresh weight inhibition rate (%)): 16.5% | inhibition at 10 g/ha (Lolium multiflorum Lamk; Lolium multiflorum, soil, 840 h, 10 gai/ha, read-out: Measured fresh weight inhibition rate (%)): 39.6% | inhibition at 20 g/ha (Lolium multiflorum Lamk; Lolium multiflorum, soil, 840 h, 20 gai/ha, read-out: Measured fresh weight inhibition rate (%)): 60.4% | inhibition at 40 g/ha (Lolium multiflorum Lamk; Lolium multiflorum, soil, 840 h, 40 gai/ha, read-out: Measured fresh weight inhibition rate (%)): 93.4% | Actual fresh weight survival rate (%) - E (Aegilops tauschii [2]; 5 gai/ha): 93.1% | Actual fresh weight survival rate (%) - E (Aegilops tauschii [2]; 10 gai/ha): 88.8% | Actual fresh weight survival rate (%) - E (Aegilops tauschii [2]; 20 gai/ha): 76.7% | inhibition at 5 g/ha (Aegilops tauschii [2]; Aegilops tauschii, soil, 5 gai/ha, read-out: Actual fresh weight inhibition rate %): 6.9% | inhibition at 10 g/ha (Aegilops tauschii [2]; Aegilops tauschii, soil, 10 gai/ha, read-out: Actual fresh weight inhibition rate %): 11.2% | inhibition at 20 g/ha (Aegilops tauschii [2]; Aegilops tauschii, soil, 20 gai/ha, read-out: Actual fresh weight inhibition rate %): 23.3%

Cc1ccc(NC(=O)N(C)C)cc1Cl [chlorotoluron, 3-(3-chloro-4-methylphenyl)-N,N-dimethylurea]
Measured fresh weight survival rate (%) - E (Aegilops tauschii [1]; 70.3125 gai/ha, 35 days): 102.6% | Measured fresh weight survival rate (%) - E (Aegilops tauschii [1]; 140.625 gai/ha, 35 days): 101.3% | Measured fresh weight survival rate (%) - E (Aegilops tauschii [1]; 281.25 gai/ha, 35 days): 92.21% | Measured fresh weight survival rate (%) - E (Aegilops tauschii [1]; 562.5 gai/ha, 35 days): 81.82% | Measured fresh weight survival rate (%) - E (Aegilops tauschii [1]; 1125 gai/ha, 35 days): 72.73% | Measured fresh weight survival rate (%) - E (Aegilops tauschii [1]; 2250 gai/ha, 35 days): 36.36% | inhibition at 70.3125 g/ha (Aegilops tauschii [1]; Aegilops tauschii, soil, 840 h, 70.3125 gai/ha, 35 days, read-out: Measured fresh weight inhibition rate (%)): -2.6% | inhibition at 140.625 g/ha (Aegilops tauschii [1]; Aegilops tauschii, soil, 840 h, 140.625 gai/ha, 35 days, read-out: Measured fresh weight inhibition rate (%)): -1.3% | inhibition at 281.25 g/ha (Aegilops tauschii [1]; Aegilops tauschii, soil, 840 h, 281.25 gai/ha, 35 days, read-out: Measured fresh weight inhibition rate (%)): 7.79% | inhibition at 562.5 g/ha (Aegilops tauschii [1]; Aegilops tauschii, soil, 840 h, 562.5 gai/ha, 35 days, read-out: Measured fresh weight inhibition rate (%)): 18.2% | inhibition at 1125 g/ha (Aegilops tauschii [1]; Aegilops tauschii, soil, 840 h, 1125 gai/ha, 35 days, read-out: Measured fresh weight inhibition rate (%)): 27.3% | inhibition at 2250 g/ha (Aegilops tauschii [1]; Aegilops tauschii, soil, 840 h, 2250 gai/ha, 35 days, read-out: Measured fresh weight inhibition rate (%)): 63.6% | control effect on Aegilops tauschii (Aegilops tauschii [1]): certain effect | Measured fresh weight survival rate (%) - E (Lolium multiflorum Lamk; 70.3125 gai/ha): 96.7% | Measured fresh weight survival rate (%) - E (Lolium multiflorum Lamk; 140.625 gai/ha): 91.21% | Measured fresh weight survival rate (%) - E (Lolium multiflorum Lamk; 281.25 gai/ha): 87.91% | Measured fresh weight survival rate (%) - E (Lolium multiflorum Lamk; 562.5 gai/ha): 83.52% | Measured fresh weight survival rate (%) - E (Lolium multiflorum Lamk; 1125 gai/ha): 25.27% | Measured fresh weight survival rate (%) - E (Lolium multiflorum Lamk; 2250 gai/ha): 0% | inhibition at 70.3125 g/ha (Lolium multiflorum Lamk; Lolium multiflorum, soil, 840 h, 70.3125 gai/ha, read-out: Measured fresh weight inhibition rate (%)): 3.3% | inhibition at 140.625 g/ha (Lolium multiflorum Lamk; Lolium multiflorum, soil, 840 h, 140.625 gai/ha, read-out: Measured fresh weight inhibition rate (%)): 8.79% | inhibition at 281.25 g/ha (Lolium multiflorum Lamk; Lolium multiflorum, soil, 840 h, 281.25 gai/ha, read-out: Measured fresh weight inhibition rate (%)): 12.1% | inhibition at 562.5 g/ha (Lolium multiflorum Lamk; Lolium multiflorum, soil, 840 h, 562.5 gai/ha, read-out: Measured fresh weight inhibition rate (%)): 16.5% | inhibition at 1125 g/ha (Lolium multiflorum Lamk; Lolium multiflorum, soil, 840 h, 1125 gai/ha, read-out: Measured fresh weight inhibition rate (%)): 74.7% | inhibition at 2250 g/ha (Lolium multiflorum Lamk; Lolium multiflorum, soil, 840 h, 2250 gai/ha, read-out: Measured fresh weight inhibition rate (%)): 100% | Actual fresh weight survival rate (%) - E (Aegilops tauschii [2]; 562.5 gai/ha): 80.2% | Actual fresh weight survival rate (%) - E (Aegilops tauschii [2]; 1125 gai/ha): 72.4% | Actual fresh weight survival rate (%) - E (Aegilops tauschii [2]; 2250 gai/ha): 52.6% | inhibition at 562.5 g/ha (Aegilops tauschii [2]; Aegilops tauschii, soil, 562.5 gai/ha, read-out: Actual fresh weight inhibition rate %): 19.8% | inhibition at 1125 g/ha (Aegilops tauschii [2]; Aegilops tauschii, soil, 1125 gai/ha, read-out: Actual fresh weight inhibition rate %): 27.6% | inhibition at 2250 g/ha (Aegilops tauschii [2]; Aegilops tauschii, soil, 2250 gai/ha, read-out: Actual fresh weight inhibition rate %): 47.4%

Source: patent publication US12564194B2, “Herbicide mixture, herbicidal composition, method and kit for controlling undesired vegetation” (Adama Agan Ltd., priority 2020, dated 2026)
